Activity calls are given as the source filed them. No rule for the calls is given here.

In general, IC50 refers to the concentration that gives 50% inhibition.

Chain of Perilipin-5 (Homo sapiens) + 1-acylglycerol-3-phosphate O-acyltransferase ABHD5 (Homo sapiens) (Q00G26 whole entry, looked up): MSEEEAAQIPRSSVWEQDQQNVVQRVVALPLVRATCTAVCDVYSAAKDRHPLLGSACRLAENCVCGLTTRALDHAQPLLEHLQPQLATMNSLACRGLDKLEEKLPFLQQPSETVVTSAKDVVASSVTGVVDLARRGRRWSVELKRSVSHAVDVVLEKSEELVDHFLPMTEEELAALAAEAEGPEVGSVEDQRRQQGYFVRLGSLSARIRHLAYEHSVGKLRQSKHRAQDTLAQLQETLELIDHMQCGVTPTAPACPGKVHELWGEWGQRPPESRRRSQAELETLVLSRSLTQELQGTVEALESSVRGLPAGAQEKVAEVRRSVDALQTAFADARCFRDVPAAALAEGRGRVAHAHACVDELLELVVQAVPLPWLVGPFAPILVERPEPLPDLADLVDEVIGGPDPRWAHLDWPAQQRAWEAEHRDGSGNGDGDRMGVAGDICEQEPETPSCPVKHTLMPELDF
Chain of Perilipin-5 (Homo sapiens) + 1-acylglycerol-3-phosphate O-acyltransferase ABHD5 (Homo sapiens) (Q8WTS1 whole entry, looked up): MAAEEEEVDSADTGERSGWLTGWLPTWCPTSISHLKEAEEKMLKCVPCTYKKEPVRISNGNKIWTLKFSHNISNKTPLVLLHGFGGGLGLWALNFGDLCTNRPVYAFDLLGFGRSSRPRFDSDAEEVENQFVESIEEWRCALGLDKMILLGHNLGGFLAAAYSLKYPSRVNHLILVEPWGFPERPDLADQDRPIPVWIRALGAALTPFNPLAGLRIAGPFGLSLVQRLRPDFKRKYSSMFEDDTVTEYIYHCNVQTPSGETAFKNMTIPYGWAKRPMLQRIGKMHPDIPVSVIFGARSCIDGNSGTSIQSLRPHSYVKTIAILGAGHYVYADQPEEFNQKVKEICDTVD

The test concerns the target Perilipin-5 (Homo sapiens) + 1-acylglycerol-3-phosphate O-acyltransferase ABHD5 (Homo sapiens) (UniProt Q00G26+Q8WTS1). As to the kind of experiment: blockers of ABHD5 binding to perilipin-5 – biochemical, luminescence, dose response (AID 651677). Particulars: ABHD5-PLIN5 interaction.
Turning to `Cc1ccc(C)c(/C=C/C(=O)c2ccccc(=O)c2O)c1`, the IC50 is 4050 nM.

Regarding `O=C1NC(=O)N(c2ccccc2F)C(=O)/C1=C/c1ccc(Oc2ccc([N+](=O)[O-])cn2)cc1`, the IC50 is 1470 nM.

With `Cc1cccc(C)c1OCc1cn(CC(=O)c2ccc(O)cc2)nn1`, the IC50 is 2830 nM.

Regarding `NC(=O)CCN1CCN(CCOC2Cc3cc(Cl)ccc3Sc3ccccc32)CC1` (stereo not given), the IC50 result is “inactive”.

Turning to `C#CCN(C[C@@H]1[C@@H](OC(=O)NCCCCCC)[C@@H](OC(=O)NCCCCCC)Cn2c(=O)ccc(=O)n21)S(=O)(=O)c1ccc(C)cc1`, the IC50 is 4740 nM.

For `COc1ccc(C(C(=O)Nc2c(C)cccc2C)n2c(=O)c(-c3ccco3)nc3ccccc32)cc1` (stereo not given), the 50% inhibitory concentration (IC50) was 2380 nM.

With `O=C(COc1ccccc1Cl)Nc1ccc(N2CCCC2)cc1`, the IC50 is > 39900 nM (inactive).

On to `CC(=O)Oc1ccc(C23c4ccccc4C2(OC(C)=O)c2cc(OC(C)=O)ccc23)cc1` (stereo not given), for which the IC50 is 720 nM.

Turning to `Cc1ccc(CC2(OCCN(C)C)CCC(C(C)(C)C)CC2)cc1` (stereo not given), the IC50 was 8610 nM.

`CCN(CC)CCC(C)OC(c1ccccc1)c1ccccc1` (stereo not given): the IC50 was 3420 nM.

In the case of `COc1ccc(NC(=O)C(c2cccc3ccccc23)n2c(=O)c(-c3ccco3)nc3ccccc32)cc1` (stereo not given), the IC50 entry is “inactive”.

Consider `O=C(NC1CCCCC1)C(c1ccc(C(F)(F)F)cc1)n1c(=O)c(-c2ccco2)nc2ccccc21` (stereo not given), for which the concentration for half-maximal inhibition (IC50) was 1250 nM.

For `COc1cc(/C=C/C(=O)c2ccc(Cl)s2)cc(OC)c1O`, the IC50 is 4480 nM.

On to `O=C(NCc1ccccc1)C(c1cccc2ccccc12)n1c(=O)c(-c2ccco2)nc2ccccc21` (stereo not given), for which the IC50 is 2220 nM.

Regarding `O=C(NC1CCCCC1)C(c1ccccc1F)n1c(=O)c(-c2ccco2)nc2ccccc21` (stereo not given), the IC50 is 1260 nM.

In the case of `CC(C)(C)NC(=O)C(c1cc2ccccc2o1)n1c(=O)c(-c2ccco2)nc2ccccc21` (stereo not given), the IC50 was 1550 nM.

In the case of `Cc1cc(C)c2nc(NNC(=O)c3ccc(S(=O)(=O)N4CCCC(C)C4)cc3)sc2c1` (stereo not given), the IC50 is 5270 nM.

For the molecule `CC1=CC2C(C(O)CC3(C)C2CC(C)C32OCOC23COCO3)C2(C)C/C(=C\O)C(=O)C=C12` (stereo not given), the IC50 was 3270 nM.

On to `CC(=O)Cc1cc(O)c2ccccc2c1OC(=O)c1ccccc1`, for which the IC50 was 1960 nM.

Consider `CCOC(=O)c1c(C)oc2c1c(CN1CCN(CCO)CC1)c(O)c1ccccc12`, for which the IC50 is 1810 nM.

As for `Cc1ccc(O)c(C(=O)/C=C/c2ccc3c(c2)OCCCO3)c1`, the IC50 was 4130 nM.

In the case of `CCCCCCC=C1CCC(CN2CCCC2)C1=O` (stereo not given), the IC50 is 1940 nM.

`CSc1nnc(NC(=O)c2nc(S(=O)(=O)Cc3ccccc3F)ncc2Cl)s1`: the IC50 was 2770 nM.

As to `C#CCN(C[C@@H]1[C@@H](OC(=O)NCc2ccc(OC)c(OC)c2)[C@@H](OC(=O)NCc2ccc(OC)c(OC)c2)Cn2c(=O)ccc(=O)n21)S(=O)(=O)c1ccc(C)cc1`, the IC50 was 5250 nM.

In the case of `CCN(CC)CCN(CC(=O)Nc1c(C)cc(C)cc1C)C(=O)c1ccccc1`, the IC50 was 9740 nM.

In the case of `CC1=CC(C)(C)Nc2ccc(OC(=O)C(C)N3C(=O)c4ccccc4C3=O)cc21` (stereo not given), the IC50 was 2640 nM.

With `c1ccc(CCC2=NCCn3cccc32)cc1`, the IC50 entry is “inactive”.

For `CC(=O)OCC1=C(C(=O)O)N2C(=O)C(NC(=O)CCn3nc(C(F)(F)F)c(Br)c3C3CC3)C2SC1` (stereo not given), the IC50 is 5240 nM.

With `CCC(C)NC(=O)Nc1ccc2c(c1)N(C)C(=O)c1ccccc1S2` (stereo not given), the IC50 is 4970 nM.

Consider `Cc1cccc(C)c1NC(=O)C(c1ccncc1)n1c(=O)c(-c2ccco2)nc2ccccc21` (stereo not given), for which the IC50 entry is “inactive”.

Take `CCN1CCN(Cc2ccc(NC(=O)c3ccc(C)c(/C=C/c4cnc(Nc5cc(N6CCNCC6)nc(C)n5)cn4)c3)cc2C(F)(F)F)CC1`: the IC50 is 2580 nM.

With `COc1cc(C)c2sc3ccccc3c(=O)c2c1NCCN(C)C`, the IC50 is 3840 nM.

Take `CC(=O)Nc1ccc(S(=O)(=O)N2c3ccc(F)cc3CCC2C)cc1` (stereo not given): the IC50 entry is “inactive”.

For `CCCC(=O)NC(c1cccc([N+](=O)[O-])c1)c1ccc2cccnc2c1O` (stereo not given), the IC50 was > 39800 nM (inactive).

As for `Cc1nc(-c2ccccc2)sc1C(=O)/C=C/c1ccccc1`, the IC50 is 2790 nM.

As to `COc1ccc(NC(=O)C(c2ccc(C#N)cc2)n2c(=O)c(-c3ccco3)nc3ccccc32)cc1` (stereo not given), the IC50 is 8620 nM.

Regarding `CCCc1nnc(NC(=O)c2nc(S(=O)(=O)Cc3cccc(C)c3)ncc2Cl)s1`, the IC50 was 3410 nM.

`CCCCCNC(=O)C(c1ccc(C#N)cc1)n1c(=O)c(-c2ccco2)nc2ccccc21` (stereo not given): the 50% inhibitory concentration (IC50) was 3150 nM.

Take `CC(C)(C)NC(=O)C(c1ccccc1F)n1c(=O)c(-c2ccco2)nc2ccccc21` (stereo not given): the IC50 is 2280 nM.

As to `O=C(NC1CCCCC1)C(c1ccnc2ccccc12)n1c(=O)c(-c2ccco2)nc2ccccc21` (stereo not given), the IC50 is 1660 nM.

In the case of `Cc1ccc(/C=C/C(=O)c2cc(Br)ccc2OC(=O)c2ccco2)cc1`, the IC50 was 922 nM.

For `O=C(NCc1ccccc1)C(c1ccccc1)n1c(=O)c(-c2ccco2)nc2ccccc21` (stereo not given), the IC50 was 2800 nM.

Turning to `O=C1CC(c2ccc(Cl)cc2)Oc2ccc(Cl)cc21` (stereo not given), the IC50 is 2840 nM.

As for `C#CCN(C[C@@H]1[C@@H](OC(=O)NC2CCCC2)[C@@H](OC(=O)NC2CCCC2)Cn2c(=O)ccc(=O)n21)S(=O)(=O)c1ccc(C)cc1`, the IC50 is 3690 nM.

Consider `NC(=O)C(C(=O)/C=C/c1ccc(Cl)cc1)=C1SCCS1`, for which the IC50 result was “inactive”.

Take `C#CCN(C[C@@H]1[C@@H](OC(=O)NCc2ccccc2F)[C@@H](OC(=O)NCc2ccccc2F)Cn2c(=O)ccc(=O)n21)S(=O)(=O)c1ccc(C)cc1`: the IC50 is 5040 nM.

As to `Cc1cc(C)c(C(CC(=O)c2cccs2)C(C#N)C#N)c(C)c1` (stereo not given), the IC50 is 8600 nM.

Consider `Cc1ccc(S(=O)(=O)N2C[C@@]3(O)Cn4c(=O)ccc(=O)n4C[C@@]3(OC(=O)NCC3CCCCC3)C2)cc1`, for which the IC50 was 3990 nM.

With `Cc1ccc(NC(=O)CSc2nnc(-c3ccco3)c(-c3ccco3)n2)cc1`, the IC50 was 1180 nM.

For the molecule `COC(=O)c1cc(=O)n(Cc2ccco2)c(=Nc2ccc(F)cc2)s1`, the IC50 is 3680 nM.

For `O=C(NCc1ccccc1)C(c1ccc(C(F)(F)F)cc1)n1c(=O)c(-c2ccco2)nc2ccccc21` (stereo not given), the IC50 is 1310 nM.

Consider `CC(=O)Nc1ccc(OCc2cn(CC(=O)c3ccc(O)cc3)nn2)cc1`, for which the IC50 is 2320 nM.

As to `Cc1ccc(C(=O)c2c(C)oc3c2C(=O)C(=O)c2ccccc2-3)cc1`, the IC50 was 3820 nM.

Take `CN(C)c1ccc(Cc2cc3c(O)ccc(O)c3cc(Cc3ccc(N(C)C)cc3)c2=O)cc1`: the IC50 is 1990 nM.

Regarding `N#Cc1ccc(C(C(=O)Nc2ccc3c(c2)OCCO3)n2c(=O)c(-c3ccco3)nc3ccccc32)cc1` (stereo not given), the concentration for half-maximal inhibition (IC50) was 7270 nM.

In the case of `CSc1nnc(NC(=O)c2nc(S(=O)(=O)Cc3ccc(C)cc3)ncc2Cl)s1`, the IC50 was 2510 nM.

As to `Cc1ccc(O)c(C(=O)C=Cc2ccccc2)c1`, the IC50 is 3140 nM.

Regarding `CCCCCNC(=O)C(c1ccccc1F)n1c(=O)c(-c2ccco2)nc2ccccc21` (stereo not given), the IC50 was 862 nM.

With `COCCN(CCOC)c1nc(N)c2c(N)nc3c(c2c1C#N)CC(=O)N3Cc1ccc(Cl)cc1`, the IC50 entry is “inactive”.

Consider `Cc1cccc(C)c1NC(=O)C(c1ccc(C#N)cc1)n1c(=O)c(-c2ccco2)nc2ccccc21` (stereo not given), for which the IC50 is 2450 nM.

With `C=C1C(=O)O[C@H]2C[C@H]1[C@@H](OC(C)=O)C/C(C)=C/CC/C(C)=C\CC[C@]2(C)O`, the IC50 is 1910 nM.

Turning to `Cc1nnc(NC(=O)c2nc(S(=O)(=O)Cc3ccccc3C)ncc2Cl)s1`, the IC50 is 2710 nM.

Turning to `Cc1cccc(C)c1NC(=O)C(c1ccc(-c2ccccc2)cc1)n1c(=O)c(-c2ccco2)nc2ccccc21` (stereo not given), the IC50 is 1330 nM.

On to `COc1ccccc1-c1cc(C(=O)NC2CCN(C)CC2)c2ccc(Cl)c(C)c2n1`, for which the IC50 is 7180 nM.

As for `CCCNC(=O)Nc1ccc2c(c1)N(C)C(=O)c1ccccc1S2`, the IC50 is 8610 nM.

`O=C(NCc1ccccc1)C(c1ccc(-c2ccccc2)cc1)n1c(=O)c(-c2ccco2)nc2ccccc21` (stereo not given): the IC50 is 2700 nM.

`COc1ccc(C(C(=O)NC(C)(C)C)n2c(=O)c(-c3ccco3)nc3ccccc32)cc1` (stereo not given): the IC50 was 1690 nM.

As to `CCOC(=O)C1C(OC(=O)c2ccccc2)CC2CCC1N2C` (stereo not given), the IC50 is 9390 nM.

Take `CCN(CCCc1ccccc1)CCCc1ccccc1`: the IC50 is 2660 nM.

For the molecule `O=C(/C=C/c1ccccc1)CC(O)(c1ccccc1)C(F)(F)C(F)F` (stereo not given), the concentration for half-maximal inhibition (IC50) is 1140 nM.

Take `CCOc1cc(/C=C2\CCC/C(=C\c3cc(Cl)c(O)c(OCC)c3)C2=O)cc(Cl)c1O`: the IC50 was 4160 nM.

As to `O=C(NC1CCCCC1)C(c1ccc(-c2ccccc2)cc1)n1c(=O)c(-c2ccco2)nc2ccccc21` (stereo not given), the IC50 was 1540 nM.

On to `CCCCCNC(=O)C(c1cc2ccccc2o1)n1c(=O)c(-c2ccco2)nc2ccccc21` (stereo not given), for which the IC50 was 1160 nM.

Turning to `C#CCN(C[C@@H]1[C@@H](OC(=O)Nc2cccs2)[C@@H](OC(=O)Nc2cccs2)Cn2c(=O)ccc(=O)n21)S(=O)(=O)c1ccc(C)cc1`, the half-maximal inhibitory concentration (IC50) is 1780 nM.

`C=C[C@]1(C)C[C@@H](OC(=O)CSCCN(CC)CC)[C@]2(C)C(C)CC[C@]3(CCC(=O)[C@H]32)[C@@H](C)[C@@H]1O` (stereo not given in full): the IC50 was 8040 nM.

As for `CC(C)(C)NC(=O)C(c1ccc(C(F)(F)F)cc1)n1c(=O)c(-c2ccco2)nc2ccccc21` (stereo not given), the IC50 is 1330 nM.

On to `Oc1ccc2sc(-c3ccccc3O)c(-c3ccc(OCCN4CCCCC4)cc3)c2c1`, for which the IC50 result was “inactive”.

In the case of `O=C(/C(=C/O)N=Nc1ccc(Cl)cc1)c1ccncc1`, the IC50 is 8340 nM.

Take `Cc1cccc(C)c1NC(=O)C(c1cccc2ccccc12)n1c(=O)c(-c2ccco2)nc2ccccc21` (stereo not given): the IC50 was 1810 nM.

As to `COc1ccc(/C=C\C(=O)CC(O)(c2ccccc2)C(F)(F)F)cc1` (stereo not given), the IC50 was 2890 nM.

As to `CC(C)(C)NC(=O)C(C1CC1)n1c(=O)c(-c2ccco2)nc2ccccc21` (stereo not given), the IC50 was 2740 nM.

Consider `CCC(=O)Nc1cccc(C(=O)/C=C/c2ccccc2)c1`, for which the IC50 was 2710 nM.

With `CCSc1ccc2c(c1)N(CCCN1CCN(C)CC1)c1ccccc1S2`, the IC50 is 5860 nM.

`O=c1c(-c2ccco2)nc2ccccc2n1C(CCc1ccccc1)c1nc2ccccc2[nH]1` (stereo not given): the half-maximal inhibitory concentration (IC50) is 1580 nM.

Take `COc1ccc(NC(=S)N(CCCN2CCCC2)Cc2cccn2Cc2ccc(Cl)cc2)cc1Cl`: the IC50 result is “inactive”.
